From EP0301034B1, “USE OF 1-(3'TRIFLUOROMETHYL 4'-NITROPHENYL) 4,4-DIMETHYL IMIDAZOLINE 2, 5-DIONE IN THE MANUFACTURE OF A MEDICAMENT FOR THE TREATMENT OF HORMONE-DEPENDENT CANCERS OTHER THAN CANCERS OF THE PROSTATE, THE SKIN AND THE COLON” (ROUSSEL-UCLAF, priority 1986, dated 1988)

Experiments:
[1] = tested on: cellules tumorales mammaires MCF-7; test: Antiproliferative activity on growth of MCF-7 mammary tumour cells (DNA assay with DABA fluorimetry); type: cell-based; conditions: 10⁻⁵M; end of experiment J6; SVF medium; inhibition of DNA increase
Procedure: (§1) L'activité de la 1-(3'-trifluorométhyl 4'-nitrophényl) 4,4-diméthyl imidazoline 2,5-dione a été déterminée par la mesure de son activité antiproliférative sur la croissance de cellules tumorales mammaires MCF-7 et T 47-D.
(§2) Les lignées MCF-7 et T 47-D sont maintenues en culture en milieu SVF (1) à 37 °C en atmosphère humide contenant 5% CO₂. Les cellules à subconfluence sont récoltées par trypsination (trypsine 0,05%, EDTA 0,02%) puis rincées par centrifugation douce. Un échantillon des cellules en suspension est compté sur cellule de Malassez.
(§3) Les cellules resuspendues dans le milieu SVF sont ensemencées à raison de 30.000 cellules par puits dans des plaques multipuits (24 puits de 2,5 cm2). […]
(§4) L'ADN est dosé par une méthode fluorimétrique utilisant le DABA (Acide 3,5 diaminobenzoïque) (2) 150 microlitres de DABA sont ajoutés dans chaque puits; les plaques sont alors incubées 45 mn à 56°C, puis 1,5 ml d'HCl 1N sont ajoutés. La fluorescence est mesurée à l'aide de fluorimètre (longueur excitatrice : 400 nm, longueur d'onde d'émission : 500 nm). La quantité d'ADN par puits est évaluée par rapport à une gamme étalon obtenue en traitant dans les mêmes conditions un standard d'ADN du thymus de veau.

[2] = tested on: cellules tumorales mammaires T 47-D; test: Antiproliferative activity on growth of T 47-D mammary tumour cells (DNA assay with DABA fluorimetry); type: cell-based; conditions: 10⁻⁵M; end of experiment J12; SVF medium; inhibition of DNA increase
Procedure: as §1, §2, §3, §4

`CC1(C)NC(=O)N(c2ccc([N+](=O)[O-])c(C(F)(F)F)c2)C1=O` [1-(3'trifluorométhyl 4'-nitrophényl) 4,4-diméthyl imidazoline 2,5-dione] was tested, and the “inhibe la croissance des cellules MCF-7” value [1] was 30% and the “inhibe la croissance des cellules T 47-D” value [2] was 30%.
